Laboratory results published in PubChem BioAssay (NCI).
Where “and” joins values, the source holds several entries; their conditions need not be identical. Equal values may be shown once.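 Values below derive from 48-hour exposures of cells grown in 96-well plates, with endpoints linearly interpolated between the two concentrations bracketing the appropriate inhibition level. The concentration for 50% growth inhibition is given as GI50. The concentration for full growth arrest is given as TGI.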

Assays:
Test in all cases: NCI-60 cell line screen, 48 h
[1] = test system: SR leukemia
[2] = test system: OVCAR-5 ovarian
[3] = test system: SK-OV-3 ovarian
[4] = test system: HOP-92 NSCLC
[5] = test system: SNB-75 CNS
[6] = test system: COLO 205 colon
[7] = test system: HOP-62 NSCLC
[8] = test system: NCI-H460 lung
[9] = test system: HCC-2998 colon
[10] = test system: A549 NSCLC

Compound	GI50 [1]	TGI [1]	GI50 [2]	TGI [2]	GI50 [3]	TGI [3]	GI50 [4]	TGI [4]	GI50 [5]	TGI [5]	GI50 [6]	TGI [6]	GI50 [7]	TGI [7]	GI50 [8]	TGI [8]	GI50 [9]	TGI [9]	GI50 [10]	TGI [10]
C[CH2][Sn]1([CH2]C)[O]C(=O)[O][Sn]([CH2]C)([CH2]C)[O]1	30.8 µM	> 100 µM	> 45.8 µM	> 59.5 µM	> 100 µM	> 100 µM	17.7 µM	33.1 µM	> 63.8 µM	> 86.7 µM	> 41.1 µM	> 57.1 µM	41.8 µM	> 68.2 µM	> 60.3 µM	> 100 µM	60 µM	> 100 µM	> 65.4 µM	> 100 µM
Cc1nc2ccc(C(F)(F)F)cc2nc1Nc1ccc(Cl)c(Cl)c1		51.9 µM		28.7 µM		36 µM		12.1 µM				11.9 µM		30.5 µM		10.5 µM		13.7 µM		21.6 µM
Cc1cc(/C=C2\SC(=Nc3ccccc3)N(C3CCCC3)C2=O)c(C)n1-c1ccc(Cl)cc1	> 100 µM	> 100 µM	> 100 µM	> 100 µM	> 100 µM	> 100 µM	> 100 µM	> 100 µM	> 100 µM	> 100 µM	> 100 µM	> 100 µM	> 100 µM	> 100 µM	> 100 µM	> 100 µM	> 100 µM	> 100 µM	> 100 µM	> 100 µM
CC(=O)OCC1OC(n2c(-c3ccccc3)cc(-c3ccco3)c(C#N)c2=O)C(OC(C)=O)C(OC(C)=O)C1OC(C)=O (stereo not drawn)	> 100 µM and 46.1 µM	> 100 µM		> 100 µM		> 100 µM	9.2 µM and 50.8 µM	21.8 µM and > 100 µM	13.3 µM and > 100 µM	40.9 µM and > 100 µM	> 31.6 µM and 87 µM	> 100 µM	> 100 µM and 22.1 µM	> 100 µM and 65.4 µM		> 100 µM		> 100 µM		> 100 µM
COc1cc(OC2OC(C)C(O)C(O)C2O)cc2oc(-c3ccc(O)cc3)c(CC=C(C)C)c(=O)c12 (stereo not drawn)	4.08 µM	22.5 µM	31.4 µM	69.2 µM	20.8 µM	45.4 µM	12.4 µM	54.8 µM	1.69 µM	17.5 µM	10 µM	22.1 µM	18.2 µM	49.6 µM	14.7 µM	38.7 µM	16.6 µM	40.8 µM	22.8 µM	68.5 µM
Oc1ccc(N=Nc2ccc(Cl)cc2)cc1		54.8 µM		32.2 µM		47.3 µM		29.2 µM		46.1 µM		33.4 µM		35.6 µM		34.2 µM		29.8 µM		31.3 µM
O=c1cc(-c2ccccc2)[nH]c2cccc(S)c12		> 100 µM		> 100 µM		26.1 µM		> 100 µM				19.2 µM		> 100 µM		> 100 µM		4 µM		> 100 µM
COc1cc(/C=C/c2cc(C(F)(F)F)[nH]c(=O)n2)ccc1OCc1ccccc1F	4.17 µM	43.3 µM	16.5 µM	30.9 µM	16.3 µM	50.8 µM			21 µM	56.7 µM	19.1 µM	33.9 µM	10.3 µM	25 µM	4.44 µM	39.3 µM	15.5 µM	30.1 µM	6.97 µM	40.3 µM
CN(C(=O)c1ccc(Cl)s1)C(=S)N(C)C(=O)c1ccc(Cl)s1		> 10 µM		> 10 µM		> 10 µM		> 10 µM		> 10 µM		> 10 µM		> 10 µM		> 10 µM		> 10 µM		> 10 µM
COc1cc(OC)c(/C=C/c2ccc3ccccc3[n+]2C)c(OC)c1	0.35 µM	2.68 µM	3.09 µM	25.2 µM	1.37 µM	26 µM	0.951 µM	4.51 µM	0.586 µM	12.4 µM	0.208 µM	0.465 µM	1.13 µM	12.1 µM	0.577 µM	2.72 µM	0.811 µM	5.6 µM	0.748 µM	13.9 µM
O=[N+]([O-])c1ccc2[nH]cc(-c3c4ccsc4cc4[nH]c5ccc([N+](=O)[O-])cc5c34)c2c1	0.419 µM	33.3 µM	1.29 µM	7.8 µM	1.25 µM	7.21 µM	0.882 µM	6.94 µM	0.618 µM	3.03 µM	0.796 µM	2.42 µM	1.13 µM	9.25 µM	0.922 µM	4.13 µM	1.88 µM	6.27 µM	1.12 µM	5.4 µM
CCC(=O)c1cn(C)c(=O)c2ccccc12		> 100 µM		> 100 µM		> 100 µM		> 100 µM		> 100 µM		> 100 µM		> 100 µM		> 100 µM		> 100 µM		> 100 µM
Nc1ccc(C(=O)N/C(=C\C=C\c2ccco2)c2nc3[nH]c(=S)[nH]c(=O)c3[nH]2)cc1		> 100 µM		> 100 µM		> 100 µM		> 100 µM				> 100 µM						> 100 µM		> 100 µM
O=C(Nc1ccccc1C(F)(F)F)c1cccc(NC2=C(Cl)C(=O)N(Cc3ccccc3)C2=O)c1	0.447 µM	4.35 µM	20 µM	> 100 µM	38.9 µM	> 100 µM	26.3 µM	> 100 µM	30.7 µM	> 57.6 µM	39.4 µM	> 100 µM	19.1 µM	> 52.2 µM	3.52 µM	15.9 µM	21.5 µM	50.8 µM	28.2 µM	> 77.8 µM
Cc1ccc(C(=O)c2oc3ccc4c(C)cc(=O)oc4c3c2C)cc1	25.1 µM	> 100 µM	11.2 µM	> 100 µM	18 µM	> 100 µM	27.1 µM	95.2 µM	4.19 µM	39.4 µM	4.66 µM	> 100 µM	12.2 µM	> 100 µM	0.896 µM	18.2 µM	24 µM	> 100 µM	4.97 µM	> 100 µM
COc1ccc(-c2c(C3=NCCN3)nnn2-c2ccccc2)cc1		> 100 µM		> 100 µM		> 100 µM		> 100 µM		> 100 µM		> 100 µM		> 100 µM		> 100 µM		> 100 µM		> 100 µM

Compound	GI50 [1]	TGI [1]	GI50 [2]	TGI [2]	GI50 [3]	TGI [3]	GI50 [4]	TGI [4]	GI50 [5]	TGI [5]	GI50 [6]	TGI [6]	GI50 [7]	TGI [7]	GI50 [8]	TGI [8]	GI50 [9]	TGI [9]	GI50 [10]	TGI [10]
CC1=CSC2=NC(c3ccc(Cl)c(Cl)c3)=CC(c3ccc(Cl)cc3)N12 (stereo not drawn)	> 61.3 µM	> 100 µM	> 100 µM	> 100 µM	> 100 µM	> 100 µM	> 100 µM	> 100 µM	> 95.3 µM	> 100 µM	> 100 µM	> 100 µM	> 100 µM	> 100 µM	> 100 µM	> 100 µM	> 100 µM	> 100 µM	> 100 µM	> 100 µM
CCCCC#COP(=O)(OCC)OCC		> 100 µM		> 100 µM		> 100 µM						> 100 µM		> 100 µM		> 100 µM		> 100 µM		> 100 µM
CN1CC(c2ccccc2)N(CCCCN2CC(c3ccccc3)N(C)CC2c2ccccc2)CC1c1ccccc1 (stereo not drawn)		> 100 µM		> 100 µM		> 100 µM		> 100 µM		> 100 µM		> 100 µM		> 100 µM		> 100 µM		> 100 µM		> 100 µM
COc1cc([C@H](C)c2ccc3ccccc3c2)cc(OC)c1OC	0.0528 µM	> 100 µM	0.997 µM	> 100 µM	0.594 µM	61.6 µM	0.908 µM	53 µM			0.306 µM	0.865 µM	0.578 µM	> 100 µM	0.332 µM	18 µM	1.24 µM	> 100 µM	0.595 µM	> 100 µM
CCCCCCC/C=C/[C@H]1O[C@]23C(=O)C[C@@]4(C[C@@H](OC5OC(CO)C(O)C(O)C5O)C[C@@H]4[C@H]2C=C1C)OC3=O (stereo partly drawn)	1.35 µM	13.6 µM	6.06 µM	14.7 µM	7.13 µM	21.6 µM	3.77 µM	11.6 µM	2.84 µM	7.17 µM	7.1 µM	17.8 µM			6.63 µM	16.8 µM	4.44 µM	9.39 µM	8.48 µM	> 33.3 µM
COc1cc2c(cc1C)NC(=O)/C2=C\c1cc(OC)c(OC)c(OC)c1	11.5 µM	47.4 µM	32.2 µM	> 100 µM	83.3 µM	> 100 µM	10.4 µM	30.6 µM	12.9 µM	31.4 µM	> 100 µM	> 100 µM	22.1 µM	53.9 µM	> 100 µM	> 100 µM	> 100 µM	> 100 µM	> 100 µM	> 100 µM
O=C(C(O)c1cn(Cc2ccccc2)c2ccccc12)N1CCCCC1 (stereo not drawn)		> 100 µM		> 100 µM		> 100 µM		> 100 µM		> 100 µM		> 100 µM		> 100 µM				> 100 µM		> 100 µM
C=CC(=O)N1CCCC(n2nc(-c3ccc(Oc4ccccc4)cc3)c3c(N)ncnc32)C1 (stereo not drawn)	9.28 µM	34.1 µM	13.1 µM	27.6 µM	0.0216 µM	15.8 µM	1.57 µM	10.5 µM	3.55 µM	14.2 µM	14.1 µM	28.5 µM	12.9 µM	26.1 µM	14.3 µM	31 µM	16 µM	30.8 µM	11.9 µM	26 µM
O=C1c2cc(Br)ccc2-c2c1c1ccc([N+](=O)[O-])cc1c(=O)n2CCCCl	< 0.01 µM		2.57 µM	21.8 µM	0.16 µM	16 µM	0.453 µM	23.9 µM			1.39 µM	> 100 µM	0.837 µM	8.28 µM	< 0.01 µM	5.4 µM	1.55 µM	13 µM	0.114 µM	> 33.9 µM
CC[N+](CCCCCCCCCC[N+](CC)(c1ccccn1)c1ccccn1)(c1ccccn1)c1ccccn1	1.36 µM	22.1 µM	1.86 µM	9.65 µM	2.22 µM	9.28 µM			1.25 µM	32.2 µM	1.78 µM	11.6 µM	2.15 µM	9.15 µM	0.625 µM	10.3 µM	1.95 µM	27.2 µM	0.456 µM	> 100 µM
Cc1cc2nc3c(C(OC4OC(CO)C(O)C(O)C4O)C(O)CO)nn(-c4ccccc4)c3nc2cc1C (stereo not drawn)		> 100 µM		> 100 µM		> 100 µM				> 100 µM				> 100 µM		> 100 µM		> 100 µM		
Cc1nc(N)sc1C(=O)/C=C/c1ccc(/C=C/C(=O)c2sc(NC(=O)CCCCCCCCC(=O)Nc3nc(C)c(C(=O)/C=C/c4ccc(/C=C/C(=O)c5sc(N)nc5C)cc4)s3)nc2C)cc1		> 100 µM		> 100 µM		> 100 µM						> 100 µM		> 100 µM		> 100 µM		> 100 µM		> 100 µM
COC1=CC23C=CC1[C@@H](c1ccccc1)C2=C(C)C(=O)N3C(=O)NC1CCCCC1 (stereo partly drawn)		56.8 µM		68.2 µM		93.5 µM		47.5 µM		> 100 µM				50.2 µM		42.2 µM		52 µM		79.8 µM
O=[N+]([O-])c1c(/C=N/Nc2ccccc2)oc(-c2ccc3c(c2)OCO3)c1-c1ccc2c(c1)OCO2		29.8 µM		> 100 µM		> 100 µM		> 100 µM		> 100 µM		> 100 µM		> 100 µM				34.3 µM		> 100 µM
CCOC(=O)CCC(=O)C1c2cccc(O)c2C(=O)c2c(O)cccc21		7.29 µM		3.38 µM				3.23 µM		2.33 µM		3.95 µM		3.8 µM		1.4 µM		2.31 µM		2.18 µM
